# Measured values taken from patent US5789182A, “System for assaying binding to a heparin-binding growth factor receptor” (The Children's Medical Center Corporation, priority 1993, dated 1998).
# Assays:
# [1] = tested on: endothelial cell migration; details: cited from earlier work
# angiogenesis = details: associated with embryogenesis and inflammation; cited from earlier work
# mouse FGF receptor (mFR) = experiment: High-affinity receptor binding of 125I-bFGF to CHO cells transfected with mFR; details: for high-affinity binding of bFGF: no heparin
# Text: The following cell lines were used: Balb/c fibroblasts; NIH 3T3 cells; CHO K1 cells (parental wild-type CHO cells, available as ATCC Accession No. CCL 61); clones 803 and 677, each of which is a clone of glucuronosyltransferase-deficient CHO K1 cells which lack cell-surface HSPG (in addition, 677 cells overexpress the closely related GAG, chondroitin sulfate); and clone 606, HS-N-sulfotransferase-deficient CHO K1-derived cells which express normal levels of (but undersulfated) cell surface HSPG. The mutant clones 803, 677, and 606 were obtained from Dr. Jeffrey D. Esko. Wild-type and mutant CHO cells were routinely grown in Hams F12 medium supplemented with 10% bovine fetal calf serum and L-glutamine (Sigma). For transfection of the murine FGF receptor, approximately 4×10^7 cells were trypsinized, washed in ice cold PBS, and incubated with 50 μg Mo/mFR/SV and 8 μg of CMV B-gal (source; used as a control for transfection efficiency) for 10 min at 4° C. Electroporation was done in a Bio-Rad Gene Pulser at 960 uF and 300V. Cells were then plated in 3 cm, 6-well plates, medium was replaced after 24 hours, and b-gal and binding assays were performed 36 to 48 hours after electroporation. Routinely, 30 to 40% of the cells stained positive for b-gal.
# (§1) Subconfluent cultures of about 2×10^5 cells in a 30 mm dish (Costar) were precooled to 4° C., washed twice with cold Dulbecco's modified Eagle's medium supplemented with 25 mM HEPES pH 7.5 and 1% bovine serum albumin (DMEM/BSA), and incubated for 2 hours at 4° C. with ^125 I-bFGF (50 μCi/ mmole) in DMEM/BSA at different concentrations and in the presence or absence of heparin, as determined by the experimental protocol. The binding medium was then discarded and the cells washed twice with ice cold PBS and twice with DMEM/BSA. To determine the amount of low-affinity-bound bFGF, the cells were incubated twice for 5 minutes with cold PBS, pH 7.5, containing 1.6M NaCl (low-affinity-bound bFGF could be totally removed using salt concentrations of 0.8M and higher--data not shown), and the radioactivity of the salt extraction solution assayed in a gamma counter. High-affinity-bound bFGF was determined by a 2M NaCl (pH 4.0) extraction (Moscatelli, J. Cell Biol. 107:753-759, 1988). Nonspecific binding was determined by including a 100-fold excess of unlabeled bFGF. After binding in the presence or absence of heparin, bFGF-receptor crosslinking with disuccinimidyl suberate (DSS) was performed as described (Yayon and Klagsbrun, Proc. Natl. Acad. Sci. USA 87:5346-5350, 1990). Briefly, cells were washed twice with PBS and then incubated with 0.15 mM DSS in PBS for 15 minutes at room temperature. The cells were then washed with a solution of 50 mM Tris, pH 7.4, and 100 mM glycine; and scraped and lysed in a small volume of lysis buffer containing 150 mM NaCl, 20 mM Tris pH 8.0, 1mM MgCl2, 0.1 mM ZnCl2, 0.5% NP-40 (Sigma), 1 μg aprotinin (Sigma), 1 μg/ml leupeptin (Sigma), and 2 mM PMSF (phenylmethylsulfonyl fluoride; Sigma). The cell lysate, cleared by spinning down nuclei and cell debris, was boiled and then electrophoresed under reducing conditions on a 7% SDS polyacrylamide gel. After drying the gel, an autoradiogram was prepared using Kodak X-Omat AR film (Eastman Kodak Co., Rochester, N.Y.).
# [2] = tested on: FRAP (mouse bFGF receptor/alkaline phosphatase fusion); experiment: Cell-free assay: 125I-bFGF binding to FRAP fusion protein, immunoprecipitated with AP-specific antibody
# Method: Conditioned medium from FRAP-A2 was assayed for its ability to bind ^125 I-bFGF by combining in the presence or in the absence of a standard amount of heparin, an aliquot of conditioned medium with a standard amount of ^125 I-bFGF and a standard amount of monoclonal antibody specific for placental alkaline phosphatase (Medix Biotech, Foster City, Calif.) coupled to CNBr-activated sepharose beads (Pharmacia, Piscataway, N.J.). The mixture was incubated for 90 min at 4° C. and centrifuged to pellet the beads, which were then washed two times with 0.5 ml PBS and re-pelleted before determining the amount of bound ^125 I in a gamma counter. […] In the experiment illustrated in FIG. 13, varying amounts of FRAP-A2-conditioned medium were combined with heparin and ^125 I-bFGF, while in FIG. 14 the variable was the concentration of heparin in the assay mix.
# [3] = tested on: cell surface heparin sulfate proteoglycans (low-affinity binding sites); experiment: Low-affinity binding of 125I-bFGF to cells (1.6M NaCl extraction)
# Method: as §1
# [4] = tested on: high-affinity FGF receptors; experiment: High-affinity binding of 125I-bFGF to untransfected CHO cells; details: untransfected wild-type and mutant CHO cells, compared to NIH-3T3 cells
# Method: as §1, with “The cells were then washed with a solution of 50 mM Tris, pH 7.4, and 100 mM glycine; and scraped and lysed in a small volume of lysis buffer containing 150 mM NaCl, 20 mM Tris pH 8.0, 1mM MgCl2, 0.1 mM ZnCl2, 0.5% NP-40 (Sigma), 1 μg aprotinin (Sigma), 1 μg/ml leupeptin (Sigma), and 2 mM PMSF (phenylmethylsulfonyl fluoride; Sigma). The cell lysate, cleared by spinning down nuclei and cell debris, was boiled and then electrophoresed under reducing conditions on a 7% SDS polyacrylamide gel. After drying the gel, an autoradiogram was prepared using Kodak X-Omat AR film (Eastman Kodak Co., Rochester, N.Y.).” left out
# [5] = Degradation of bFGF in binding medium (gel electrophoresis, biological activity assay); format: physicochemical; details: aliquots at end of each experiment, with or without heparin
# Text: The heparin-dependent high-affinityreceptor binding was similar to that reported for non-heparin-dependent binding of bFGF to cells which naturally express both HSPG and high-affinity receptors for bFGF (Neufeld et al., J. Biol. Chem. 261:5631-5637, 1985).
# mouse FGF receptor = experiment: Chemical crosslinking of 125I-bFGF to mFR-transfected CHO cells (DSS); details: HS-deficient cells; unless heparin was included in the binding medium
# Method: as §1, with “The cells were then washed with a solution of 50 mM Tris, pH 7.4, and 100 mM glycine; and scraped and lysed in a small volume of lysis buffer containing 150 mM NaCl, 20 mM Tris pH 8.0, 1mM MgCl2, 0.1 mM ZnCl2, 0.5% NP-40 (Sigma), 1 μg aprotinin (Sigma), 1 μg/ml leupeptin (Sigma), and 2 mM PMSF (phenylmethylsulfonyl fluoride; Sigma). The cell lysate, cleared by spinning down nuclei and cell debris, was boiled and then electrophoresed under reducing conditions on a 7% SDS polyacrylamide gel. After drying the gel, an autoradiogram was prepared using Kodak X-Omat AR film (Eastman Kodak Co., Rochester, N.Y.).” left out
# [6] = tested on: serum-starved Balb/c fibroblasts; experiment: Biological activity of iodinated bFGF; format: cell-based; details: ability to stimulate serum-starved Balb/c fibroblasts
# Text: Recombinant human bFGF was labeled with ^125 I (17 Ci/mg) (New England Nuclear, Boston, MA) using Iodo-beads (Pierce Chemical Co., Rockford, IL) according to the manufacturer's instructions. […] When subjected to SDS-PAGE, ^125 I-bFGF migrated as a single band in the same position as unlabeled bFGF.
substance,measurement,setting,value
Protamine,effect on heparin-stimulated endothelial cell migration,[1],inhibits the ability of heparin to stimulate endothelial cell migration
same,effect on angiogenesis,angiogenesis,inhibits angiogenesis
^125 I-bFGF: recombinant human bFGF labeled with 125I using Iodo-beads [reference compound],125I-bFGF bound relative to untransfected cells,mouse FGF receptor (mFR); wild-type CHO cells transiently transfected with mFR,8-10 fold
"bFGF: recombinant human basic fibroblast growth factor, gift from Takeda Inc.",bound 125I with increasing concentrations of unlabelled FGF,[2]; competition assay (FIG. 12),decrease
same,binding of labelled bFGF to fusion protein,[2]; presence vs absence of heparin or a heparin-like molecule,in the presence but not in the absence
same,reduction of low-affinity binding of bFGF compared to wild-type CHO cells,[3]; CHO clone 606 (undersulfated HSPG),more than 50%
same,low-affinity binding of bFGF,"[3]; clone 677 cells (undetectable HSPG, overexpress chondroitin sulfate)",Absence of low-affinity bFGF binding
same,low-affinity binding of bFGF,[3]; clone 803 cells (5%-10% of wild-type HSPG),did not bind significant amounts
same,low-affinity binding of bFGF,[3]; wild-type CHO K1 cells,comparable to that found for NIH-3T3 cells
same,high-affinity binding of bFGF,[4],very little high-affinity binding
same,degradation of bFGF in binding medium,[5],no signs of degradation
same,character of bFGF-receptor binding,"mouse FGF receptor (mFR); HS-deficient cells, 40 ng/ml heparin","specific, saturable, single class of high-affinity binding sites"
same,competition of heparin-dependent high-affinity receptor binding of 125I-bFGF,mouse FGF receptor (mFR); excess of unlabeled bFGF,specifically competed out
same,high-affinity binding of bFGF,mouse FGF receptor (mFR); mFR-transfected HS-deficient mutants,none of the similarly transfected HS-deficient mutants showed significant high-affinity binding
same,high-affinity binding of bFGF,mouse FGF receptor (mFR); wild-type CHO K1 cells transfected with Mo/mFR/SV,high levels of high-affinity binding
same,crosslinking of bFGF to high-affinity receptors,mouse FGF receptor,could not be crosslinked
same,biological activity after iodination,[6],Full biological activity
